According to ChEMBL document CHEMBL1177672, “Discovery of orally available spirodiketopiperazine-based CCR5 antagonists” (Bioorg Med Chem, 2010):
pIC50: −log10 of the molar value.

Key:
[1] = tested on: Liver microsomes; experiment: Half life in rat liver microsome at 0.2 mg/ml; type: ADME
[2] = target: C-C chemokine receptor type 5 (Homo sapiens, UniProt P51681); experiment: Antagonist activity at human CCR5 receptor expressed in CHO cells assessed as inhibition of MIP-1-alpha-stmulated calcium mobilization; type: functional, cell-based
[3] = tested on: Liver microsomes; experiment: (§1) Metabolic stability in rat liver microsomes assessed as compound remaining at 0.5 mg/ml after 15 mins; type: ADME, Microsome; conditions: microsomes, 0.25 h
[4] = (§2) AUC in rat at 30 mg/kg, po; type: ADME, organism-based, Plasma; parameters: dose 30 mg/kg, route oral; conditions: plasma
[5] = Aqueous solubility of the compound; type: physicochemical; conditions: buffer
[6] = tested on: Caco-2; experiment: Apparent permeability from basolateral to apical side of human Caco-2 cells; type: ADME, cell-based
[7] = tested on: Caco-2; experiment: Apparent permeability from apical to basolateral side of human Caco-2 cells; type: ADME, cell-based
[8] = Cmax in rat at 30 mg/kg, po; type: ADME, organism-based; parameters: dose 30 mg/kg, route oral; conditions: in vivo
[9] = Half life in rat at 30 mg/kg, po; type: ADME, organism-based; parameters: dose 30 mg/kg, route oral; conditions: in vivo
[10] = tested on: Human immunodeficiency virus 1; experiment: microbe, parasite or virus in culture; conditions: Human immunodeficiency virus 1, BAL
Description: Antiviral activity against HIV1 BAL by p24 assay

[11] = as §1; type: ADME, Microsome; conditions: liver microsomes, read-out: Stability
[12] = Half life in rat at 3 mg/kg, iv; type: ADME, organism-based; parameters: dose 3 mg/kg, route intravenous; conditions: in vivo
[13] = tested on: Rattus norvegicus; experiment: AUC in rat at 3 mg/kg, iv; type: ADME, organism-based, Plasma; parameters: dose 3 mg/kg, route intravenous; conditions: in vivo
[14] = Clearance in rat at 3 mg/kg, iv; type: ADME, organism-based; parameters: dose 3 mg/kg, route intravenous; conditions: in vivo
[15] = tested on: Rattus norvegicus; experiment: as §2; type: ADME, organism-based, Plasma; parameters: dose 30 mg/kg, route oral; conditions: in vivo
[16] = Volume of distribution at steadt state in rat at 3 mg/kg, iv; conditions: in vivo
[17] = Oral bioavailability in rat at 30 mg/kg; type: ADME, organism-based; conditions: in vivo

C-C chemokine receptor type 5, sequence (P51681 whole entry): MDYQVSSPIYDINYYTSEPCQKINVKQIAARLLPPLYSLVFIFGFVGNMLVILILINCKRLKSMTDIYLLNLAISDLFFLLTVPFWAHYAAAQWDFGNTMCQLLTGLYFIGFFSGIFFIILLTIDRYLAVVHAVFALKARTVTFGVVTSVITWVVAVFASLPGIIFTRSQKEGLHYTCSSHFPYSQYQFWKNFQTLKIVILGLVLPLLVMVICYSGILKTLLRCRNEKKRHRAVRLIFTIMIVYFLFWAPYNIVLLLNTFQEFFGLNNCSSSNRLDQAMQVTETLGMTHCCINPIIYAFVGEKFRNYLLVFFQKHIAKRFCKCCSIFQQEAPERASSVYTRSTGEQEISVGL

| Compound | t1/2 [1] | pIC50 [2] | Stability [3] | other results |
| --- | --- | --- | --- | --- |
| CC#CCN1C(=O)C(CC(C)C)NC(=O)C12CCN(Cc1ccc(Oc3ccccc3)cc1)CC2.Cl (racemic) | 15 min | 7.27 | – | – |
| CCCCN1C(=O)C(CC(=O)O)NC(=O)C12CCN(Cc1ccc(Oc3ccccc3)cc1)CC2 (racemic) | – | < 5.52 | – | – |
| CCCCN1C(=O)C(CC2CCCC2)NC(=O)C12CCN(Cc1ccc(Oc3ccccc3)cc1)CC2.Cl (racemic) | 20 min | 7.28 | – | – |
| CCCCN1C(=O)C(CCCC2CCCCC2)NC(=O)C12CCN(Cc1ccc(Oc3ccccc3)cc1)CC2.Cl (racemic) | 23 min | < 5.52 | – | – |
| CCCCN1C(=O)C(CC2CCCCC2)NC(=O)C12CCN(Cc1c(C)nn(-c3ccccc3)c1C)CC2.Cl.Cl (racemic) | – | 7.46 | 23% | – |
| CCCCN1C(=O)[C@H](CC2CCCCC2)NC(=O)C12CCN(Cc1ccc(Oc3ccc(O)cc3)cc1)CC2.Cl | – | 7.38 | 22% | AUC [4]: 195 ng·h/mL; solubility [5]: < 5 µM; Papp [6]: 0.14 ×10⁻⁶ cm/s; Papp [7]: 0.33 ×10⁻⁶ cm/s; Cmax [8]: 100 ng/mL; half-life [9]: 205 min |
| CCCCN1C(=O)[C@H](CC2CCCCC2)NC(=O)C12CCN(Cc1ccc(C(=O)c3ccccc3)cc1)CC2.Cl | – | 7.09 | 23% | – |
| CCCCN1C(=O)[C@H](CC2CCCCC2)NC(=O)C12CCN(Cc1ccc(Oc3ccc(C)cc3)cc1)CC2.Cl | – | 7.10 | 48% | – |
| CCCCN1C(=O)C(CC2CCCCC2)NC(=O)C12CCN(Cc1c[nH]c(-c3ccccc3)n1)CC2 (racemic) | – | 6.80 | – | – |
| CCCCN1C(=O)[C@H](CC2CCCCC2)NC(=O)C12CCN(Cc1nc(-c3ccccc3)oc1C)CC2 | – | 6.35 | – | – |
| CCCCN1C(=O)C(CCC)NC(=O)C12CCN(Cc1ccc(Oc3ccccc3)cc1)CC2.Cl (racemic) | 22 min | 7.30 | – | – |
| CCCCN1C(=O)[C@H](CC2CCCCC2)NC(=O)C12CCN(Cc1ccc(Oc3ccc(NS(C)(=O)=O)cc3)cc1)CC2.Cl | – | 7.40 | 15% | – |
| CCCCN1C(=O)C(CC2CCCCC2)NC(=O)C12CCN(C(=O)OCc1ccccc1)CC2 (racemic) | – | 5.52 | – | – |
| CCCCN1C(=O)[C@H](CC2CCCCC2)NC(=O)C12CCN(Cc1ccc(-c3cccnc3)cc1)CC2.Cl.Cl | – | 7.15 | 29% | – |
| CCCCN1C(=O)[C@H](CC2CCCCC2)NC(=O)C12CCN(Cc1ccc(Sc3ccccc3)cc1)CC2.Cl | – | 6.77 | 38% | – |
| C/C=C/CN1C(=O)C(CC(C)C)NC(=O)C12CCN(Cc1ccc(Oc3ccccc3)cc1)CC2.Cl (racemic) | 14 min | 7.16 | – | – |
| CCCCN1C(=O)[C@H](CC(C)(C)C)NC(=O)C12CCN(Cc1ccc(Oc3ccccc3)cc1)CC2.Cl | 12 min | 7.10 | – | – |
| CCCCN1C(=O)[C@H](CC2CCCCC2)NC(=O)C12CCN(Cc1ccc(Oc3ccc(S(N)(=O)=O)cc3)cc1)CC2.Cl | – | 7.55 | 24% | pIC50 [10]: 8.00 |

| Compound | t1/2 [1] | pIC50 [2] | Stability [3] | other results |
| --- | --- | --- | --- | --- |
| CCCCN1C(=O)[C@H](CC2CCCCC2)NC(=O)C12CCN(Cc1ccc(Oc3ccc(OC)cc3)cc1)CC2.Cl | – | 6.89 | 34% | – |
| CCCCN1C(=O)[C@H](CC2CCCCC2)NC(=O)C12CCN(Cc1ccc(Oc3ccc(C(=O)O)cc3)cc1)CC2.Cl | – | – | – | solubility [5]: 29 µM; remaining at 0.25 h [11]: 22%; Papp [6]: 16.8 ×10⁻⁶ cm/s; Papp [7]: 11 ×10⁻⁶ cm/s |
| CCCCN1C(=O)[C@H](CC2CCCCC2)NC(=O)C12CCN(CCc1ccc(Oc3ccccc3)cc1)CC2 | – | < 5.52 | – | – |
| CCCCN1C(=O)[C@H](CC(C)C)NC(=O)C12CCN(Cc1ccc(Oc3ccccc3)cc1)CC2.Cl | 7.1 min | – | – | – |
| CCCCN1C(=O)C(CC(=O)OCc2ccccc2)NC(=O)C12CCN(Cc1ccc(Oc3ccccc3)cc1)CC2 (racemic) | – | 6.23 | – | – |
| CCCCN1C(=O)C(CC2CCCCC2)NC(=O)C12CCN(Cc1ccc(Oc3ccccc3)cc1)CC2.Cl (racemic) | 24 min | – | – | AUC [4]: 74.4 ng·h/mL; solubility [5]: < 5 µM; Papp [6]: 0.27 ×10⁻⁶ cm/s; half-life [12]: 19.9 min; AUC [13]: 400 ng; Papp [7]: 0.15 ×10⁻⁶ cm/s; clearance [14]: 113 mL/min/kg |
| CCCCN1C(=O)C(CC2CCCCC2)NC(=O)C12CCN(Cc1csc(-c3ccccc3)n1)CC2 (racemic) | – | 6.24 | – | – |
| CCCCN1C(=O)C(CC2CCCCC2)NC(=O)C12CCN(Cc1ccc(OC)cc1)CC2.Cl (racemic) | 8.3 min | – | – | – |
| CCCCN1C(=O)[C@H](CC2CCCCC2)NC(=O)C12CCN(Cc1ccc(S(=O)(=O)c3ccccc3)cc1)CC2.Cl | – | 7.07 | 19% | – |
| CC(C)CC1NC(=O)C2(CCN(Cc3ccc(Oc4ccccc4)cc3)CC2)N(CC(C)C)C1=O.Cl (racemic) | 15 min | 6.48 | – | – |
| CCCCN1C(=O)C(CC(C)C)NC(=O)C12CCN(Cc1ccc(Oc3ccccc3)cc1)CC2.Cl (racemic) | 12 min | – | – | AUC [15]: 290 ng·h/mL; solubility [5]: 14 µM; Papp [6]: 2.23 ×10⁻⁶ cm/s; half-life [12]: 13 min; AUC [13]: 372 ng; Papp [7]: 1.51 ×10⁻⁶ cm/s; Cmax [8]: 100 ng/mL; half-life [9]: 75.7 min |
| CCCCN1C(=O)C(CC2CCCCC2)NC(=O)C12CCN(c1ccc(C(=O)OCC)cc1)CC2 (racemic) | – | < 5.52 | – | – |
| CC(C)CC1NC(=O)C2(CCN(Cc3ccc(Oc4ccccc4)cc3)CC2)N(CCC(C)O)C1=O.Cl (racemic) | 12 min | < 5.52 | – | AUC [4]: 10500 ng·h/mL; Vd [16]: 0.145 L/kg; half-life [12]: 11.1 min; clearance [14]: 16 mL/min/kg; Cmax [8]: 7200 ng/mL; bioavailability [17]: 34.1%; half-life [9]: 48.4 min |
| CCCCN1C(=O)[C@H](CC2CCCCC2)NC(=O)C12CCN(Cc1ccc(C(=O)Nc3ccccc3)cc1)CC2.Cl | – | 7.24 | 29% | – |
| CC(C)CC1NC(=O)C2(CCN(Cc3ccc(Oc4ccccc4)cc3)CC2)N(Cc2ccccc2)C1=O (racemic) | – | 6.52 | – | – |
| CCCCN1C(=O)C(CC2CCCCC2)NC(=O)C12CCN(Cc1ccc(Oc3ccccc3)nc1)CC2.Cl.Cl (racemic) | – | 7.68 | 10% | – |
| CCCCN1C(=O)[C@H](CC2CCCCC2)NC(=O)C12CCN(Cc1ccc(Oc3ccc(F)cc3)cc1)CC2.Cl | – | 7.04 | 53% | – |
| CCCCN1C(=O)[C@H](CC2CCCCC2)NC(=O)C12CCN(Cc1ccc(Oc3ccc(C(=O)NC)cc3)cc1)CC2.Cl | – | 7.48 | 4% | solubility [5]: 6 µM; Papp [7]: 3.51 ×10⁻⁶ cm/s; half-life [9]: 72.7 min |
